Paper PMC3698126, “MtnBD Is a Multifunctional Fusion Enzyme in the Methionine Salvage Pathway of Tetrahymena thermophila” (PLoS ONE, 2013)
Values belong to the molecule of their own block, whether it stands above or below them.

Assays:
[1] = biological target: T1, B. subtilis MtnX (Bacillus subtilis, UniProt O31667); test: UV-visible spectral shift to […] nm and 1H-NMR; assay type: biochemical; settings: phosphatase reaction to DHK-MTPene; pH 8.0, 35°C; substrate made in situ by T. thermophila MtnB domain
T1 sequence (O31667 1-235): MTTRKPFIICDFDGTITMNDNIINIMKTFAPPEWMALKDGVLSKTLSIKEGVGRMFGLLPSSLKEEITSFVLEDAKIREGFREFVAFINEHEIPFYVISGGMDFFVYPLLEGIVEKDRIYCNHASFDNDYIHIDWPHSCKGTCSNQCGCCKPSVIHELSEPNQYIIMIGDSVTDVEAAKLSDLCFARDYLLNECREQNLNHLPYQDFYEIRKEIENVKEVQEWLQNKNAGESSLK

[2] = biological target: T2, Full-length MtnBD (Tetrahymena thermophila, UniProt I7MAL0); test: UV-visible and 1H-NMR product analysis; assay type: biochemical; settings: dehydratase/enolase to HK-MTPenyl-1-P; 5 mM MgCl2, pH 8.0, 35°C; substrate made in situ from MTR-1-P by MtnA; kcat only, no Km
T2 construct: gene TTHERM_00467500
T2 sequence (I7MAL0 1-400): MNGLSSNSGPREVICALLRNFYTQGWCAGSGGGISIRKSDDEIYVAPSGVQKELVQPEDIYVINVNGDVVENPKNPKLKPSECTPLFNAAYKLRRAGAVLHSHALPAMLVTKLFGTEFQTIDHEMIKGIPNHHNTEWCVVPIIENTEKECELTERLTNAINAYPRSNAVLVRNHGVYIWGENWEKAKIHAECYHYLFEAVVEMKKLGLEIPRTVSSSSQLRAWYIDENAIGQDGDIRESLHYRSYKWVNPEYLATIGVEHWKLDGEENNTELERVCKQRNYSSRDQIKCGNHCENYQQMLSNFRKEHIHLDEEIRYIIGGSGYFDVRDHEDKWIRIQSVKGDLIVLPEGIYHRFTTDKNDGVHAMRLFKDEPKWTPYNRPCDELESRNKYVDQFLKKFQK

[3] = biological target: T3, MtnB domain (Tetrahymena thermophila, UniProt I7MAL0); test: UV-visible and 1H-NMR product analysis; assay type: biochemical; settings: dehydratase/enolase to HK-MTPenyl-1-P; 5 mM MgCl2, pH 8.0, 35°C; substrate made in situ from MTR-1-P by MtnA; kcat only, no Km
T3 construct: gene TTHERM_00467500

[4] = biological target: MtnB domain of Tetrahymena thermophila MtnBD (Met1-Ser216), histidine-tagged recombinant protein (Tetrahymena thermophila); test: native gel or EMSA; native-PAGE, 5-20% gradient polyacrylamide gel, non-denaturing conditions, 1 ug purified protein, mass estimated against native high molecular weight markers; oligomer size from native mass over calculated monomer mass
[5] = biological target: Tetrahymena thermophila MtnBD, full-length, histidine-tagged recombinant protein (Tetrahymena thermophila); test: as above

Molecule: CSCCC(=O)C(O)=COP(=O)(O)O [HK-MTPenyl-1-P]
- UV-visible spectral shift to 310 nm and 1H-NMR [1]: DHK-MTPene was obtained from the reaction of B. subtilis MtnX with HK-MTPenyl-1-P

Molecule: CSC[C@@H](O)[C@@H](O)C(=O)COP(=O)(O)O [MTRu-1-P]
- UV-visible and 1H-NMR product analysis [2]: T. thermophila MtnBD catalyzed the conversion of MTRu-1-P to HK-MTPenyl-1-P
- UV-visible and 1H-NMR product analysis [3]: MtnB domain catalyzed the dehydration/enolization reactions to convert MTRu-1-P to HK-MTPenyl-1-P

- stoichiometry N [4]: 6
Molecule: MtnB domain of Tetrahymena thermophila MtnBD (Met1-Ser216), histidine-tagged recombinant protein (domain or fragment)

- stoichiometry N [5]: 6
Molecule: Tetrahymena thermophila MtnBD, full-length, histidine-tagged recombinant protein (enzyme)
